Results published in patent publication US9873709B2 (priority 2013, dated 2018).

Each compound was assayed on JAK1-dependent STAT6 phosphorylation downstream of IL-13 stimulation in TF-1 human erythroleukemia cells (assay: cells). Conditions: TF-1, read-out: IL-13-pSTAT6 IC50.

Going from `CN1CCN(C2CCN(C(=O)c3ccc(Nc4nc5c(C6=CCN(C(=O)CCC(F)(F)F)CC6)cccn5n4)cc3)CC2)CC1` [Example 2-393, 4,4,4-trifluoro-1-[4-[2-[4-[4-(4-methylpiperazin-1-yl)piperidine-1-carbonyl]anilino]-[1,2,4]triazolo[1,5-a]pyridin-8-yl]-3,6-dihydro-2H-pyridin-1-yl]butan-1-one] to `O=C(CCC(F)(F)F)N1CC=C(c2cccn3nc(Nc4ccc(C(=O)N5CCN(CC6CC6)CC5)cc4)nc23)CC1` [Example 2-398, 1-[4-[2-[4-[4-(cyclopropylmethyl)piperazine-1-carbonyl]anilino]-[1,2,4]triazolo[1,5-a]pyridin-8-yl]-3,6-dihydro-2H-pyridin-1-yl]-4,4,4-trifluoro-butan-1-one], the IC50 falls from 23.4 nM to 8.6 nM (2.7-fold).

`O=C(CCC(F)(F)F)N1CC=C(c2cccn3nc(Nc4ccc(C(=O)N5CCN(Cc6cccnc6)CC5)cc4)nc23)CC1` [Example 2-394, 4,4,4-trifluoro-1-[4-[2-[4-[4-(3-pyridylmethyl)piperazine-1-carbonyl]anilino]-[1,2,4]triazolo[1,5-a]pyridin-8-yl]-3,6-dihydro-2H-pyridin-1-yl]butan-1-one] and `O=C(CCC(F)(F)F)N1CC=C(c2cccn3nc(Nc4ccc(C(=O)N5CCN(c6cccnc6)CC5)cc4)nc23)CC1` [Example 2-395, 4,4,4-trifluoro-1-[4-[2-[4-[4-(3-pyridyl)piperazine-1-carbonyl]anilino]-[1,2,4]triazolo[1,5-a]pyridin-8-yl]-3,6-dihydro-2H-pyridin-1-yl]butan-1-one] are within 1.5-fold of each other in IC50: 4 nM for the first, 4.6 nM for the second.

Compared with `O=C(CCC(F)(F)F)N1CC=C(c2cccn3nc(Nc4ccc(C(=O)N5CCCC5Cc5ccccn5)cc4)nc23)CC1` (stereo not shown) [Example 2-396, 4,4,4-trifluoro-1-[4-[2-[4-[2-(2-pyridylmethyl)pyrrolidine-1-carbonyl]anilino]-[1,2,4]triazolo[1,5-a]pyridin-8-yl]-3,6-dihydro-2H-pyridin-1-yl]butan-1-one], `O=C(CCC(F)(F)F)N1CC=C(c2cccn3nc(Nc4ccc(C(=O)N5CCN(c6ccccn6)CC5)cc4)nc23)CC1` [Example 2-397, 4,4,4-trifluoro-1-[4-[2-[4-[4-(2-pyridyl)piperazine-1-carbonyl]anilino]-[1,2,4]triazolo[1,5-a]pyridin-8-yl]-3,6-dihydro-2H-pyridin-1-yl]butan-1-one] is 3.7-fold higher in IC50: 5.4 nM for the first, 20.2 nM for the second.

Going from `CC(CN(C)C)NC(=O)c1ccc(Nc2nc3c(C4=CCN(C(=O)CCC(F)(F)F)CC4)cccn3n2)cc1` (stereo not shown) [Example 2-399, N-[2-(dimethylamino)-1-methyl-ethyl]-4-[[8-[1-(4,4,4-trifluorobutanoyl)-3,6-dihydro-2H-pyridin-4-yl]-[1,2,4]triazolo[1,5-a]pyridin-2-yl]amino]benzamide] to `Cc1cccc(C(C)NC(=O)c2ccc(Nc3nc4c(C5=CCN(C(=O)CCC(F)(F)F)CC5)cccn4n3)cc2)n1` (stereo not shown) [Example 2-401, N-[1-(6-methyl-2-pyridyl)ethyl]-4-[[8-[1-(4,4,4-trifluorobutanoyl)-3,6-dihydro-2H-pyridin-4-yl]-[1,2,4]triazolo[1,5-a]pyridin-2-yl]amino]benzamide], the IC50 falls from 12.1 nM to 6 nM (2-fold). The second is the more potent here.

`CCCN1CCC(N(C(=O)c2ccc(Nc3nc4c(C5=CCN(C(=O)CCC(F)(F)F)CC5)cccn4n3)cc2)C2CC2)CC1` [Example 2-400, N-cyclopropyl-N-(1-propyl-4-piperidyl)-4-[[8-[1-(4,4,4-trifluorobutanoyl)-3,6-dihydro-2H-pyridin-4-yl]-[1,2,4]triazolo[1,5-a]pyridin-2-yl]amino]benzamide] and `CN(Cc1cccnc1)C(=O)c1ccc(Nc2nc3c(C4=CCN(C(=O)CCC(F)(F)F)CC4)cccn3n2)cc1` [Example 2-402, N-methyl-N-(3-pyridylmethyl)-4-[[8-[1-(4,4,4-trifluorobutanoyl)-3,6-dihydro-2H-pyridin-4-yl]-[1,2,4]triazolo[1,5-a]pyridin-2-yl]amino]benzamide] are within 1.5-fold of each other in IC50: 6.8 nM for the first, 5.6 nM for the second.
